Measurements taken from US20220347253A1, “HEALTH FOOD AND COSMETICS FOR INCREASING THE AMOUNT OF APOPTOSIS CELLS AND DECREASING THE AMOUNT OF NECROSIS CELLS AND A METHOD OF MANUFACTURING A SPROUT-FORCING GRAPE SEED-DERIVED INGREDIENT FOR INCREASING THE AMOUNT OF APOPTOSIS CELLS AND DECREASING THE AMOUNT OF NECROSIS CELLS” (priority 2017, published 2022).

What was measured:
male and female mouse = conditions: cited from earlier work
Normal human fibroblasts [1] = assay: Amount of necrosis cells (EthD-III staining); format: cell-based; conditions: for amount of the necrosis cells compared to the Control: Control = 100%, Comparative Example 1 = 0.0023 wt % resveratrol
Excerpt: Example 1: a basal medium comprising 0.002 wt % of grape seed-derived anti-aging ingredients of the present invention. Example 2: a basal medium comprising 0.01 wt % of grape seed-derived anti-aging ingredients of the present invention. Example 3: a basal medium comprising 0.05 wt % of grape seed-derived anti-aging ingredients of the present invention. Comparative Example 1: a basal medium containing 0.0023 wt % of resveratrol. Control: a basal medium (comprising no grape seed-derived anti-aging ingredients of the present invention nor resveratrol). […] The amount of the necrosis cells was measured using an ethidium homodimer III (EthD-III) which has been conventionally used as a necrosis marker. In more detail, EthD-III is a film-impermeable nucleic acid probe and the amount of the necrosis cells was measured by using its property that neither the viable cells nor the apoptosis cells are stained but the necrosis cells are stained in strong red with EthD-III. After removing the culture supernatant of a normal human fibroblast cultured in Example 2, the normal human fibroblast was washed twice with PBS (NISSUI PHARMACEUTICAL CO., LTD., product No.: 05913). To the washed normal human fibroblast were added a 1×Binding Buffer containing a 1000-fold diluted Hoechist 33342 solution (DOJINDO LABORATORIES, product No.: 346-079511), a 20-fold diluted FITC-Annexin V, and a 20-fold diluted EthD-III. Then, the normal human fibroblast was cultured at 37° C. for 30 minutes. Then, after removing culture supernatant, the normal human fibroblast was washed twice in the 1×Binding Buffer. New 1×Binding Buffer was added to the normal human fibroblast after the washing, and images of nuclear staining (viable cell), Annexin V staining (apoptosis), and an EthD-III staining (necrosis) were taken by a fluorescence microscope. The amount of apoptosis cells and the amount of necrosis cells were calculated from the fluorescent observation images. Furthermore, FITC-Annexin V, EthD-III and 1×Binding Buffer used in Examples were from Apoptotic/Necrotic/Healthy Cells Detection Kit (Takara Bio, Inc. product No.: D25517).

Normal human fibroblasts [2] = assay: Amount of apoptosis cells (FITC-Annexin V staining); format: cell-based; conditions: for amount of the apoptosis cells compared to the Control: Control = 100%, Example 1/2/3 = 0.002/0.01/0.05 wt % ingredient, Comparative Example 1 = 0.0023 wt % resveratrol
Excerpt: Example 1: a basal medium comprising 0.002 wt % of grape seed-derived anti-aging ingredients of the present invention. Example 2: a basal medium comprising 0.01 wt % of grape seed-derived anti-aging ingredients of the present invention. Example 3: a basal medium comprising 0.05 wt % of grape seed-derived anti-aging ingredients of the present invention. Comparative Example 1: a basal medium containing 0.0023 wt % of resveratrol. Control: a basal medium (comprising no grape seed-derived anti-aging ingredients of the present invention nor resveratrol). The amount of the apoptosis cells was measured using Annexin V which has been conventionally used as an apoptosis marker. In more detail, the amount of the apoptosis cells was measured by selectively fluorescently-staining the apoptosis cells by fluorescently labeled Annexin V, using its property that Annexin V binds to phosphatidylserine often appearing on a surface of the apoptosis cells. After removing the culture supernatant of a normal human fibroblast cultured in Example 2, the normal human fibroblast was washed twice with PBS (NISSUI PHARMACEUTICAL CO., LTD., product No.: 05913). To the washed normal human fibroblast were added a 1×Binding Buffer containing a 1000-fold diluted Hoechist 33342 solution (DOJINDO LABORATORIES, product No.: 346-079511), a 20-fold diluted FITC-Annexin V, and a 20-fold diluted EthD-III. Then, the normal human fibroblast was cultured at 37° C. for 30 minutes. Then, after removing culture supernatant, the normal human fibroblast was washed twice in the 1×Binding Buffer. New 1×Binding Buffer was added to the normal human fibroblast after the washing, and images of nuclear staining (viable cell), Annexin V staining (apoptosis), and an EthD-III staining (necrosis) were taken by a fluorescence microscope. The amount of apoptosis cells and the amount of necrosis cells were calculated from the fluorescent observation images. Furthermore, FITC-Annexin V, EthD-III and 1×Binding Buffer used in Examples were from Apoptotic/Necrotic/Healthy Cells Detection Kit (Takara Bio, Inc. product No.: D25517).

[3] = tested on: budding yeast (Saccharomyces cerevisiae); conditions: cited from earlier work
Normal human fibroblasts [4] = assay: Workload of a certain amount of mitochondria (MTT assay); format: cell-based; conditions: for workload of a certain amount of mitochondria relative to Control: Control = 100%, Example 1/2/3 = 0.002/0.01/0.05 wt % ingredient, Comparative Example 1 = 0.0023 wt % resveratrol
Excerpt: Example 1: a basal medium comprising 0.002 wt % of grape seed-derived anti-aging ingredients of the present invention. Example 2: a basal medium comprising 0.01 wt % of grape seed-derived anti-aging ingredients of the present invention. Example 3: a basal medium comprising 0.05 wt % of grape seed-derived anti-aging ingredients of the present invention. Comparative Example 1: a basal medium containing 0.0023 wt % of resveratrol. Control: a basal medium (comprising no grape seed-derived anti-aging ingredients of the present invention nor resveratrol). The workload of a certain amount of mitochondria was measured by MTT assay. Since the only target of MTT assay is dehydrogenase activity of mitochondria, the result of MTT assay reflects the workload of a certain amount of mitochondria. After measuring the fluorescence intensity, supernatants were removed, and normal human fibroblasts were washed once with PBS (Nissui Pharmaceutical Co., Ltd., product No.: 05913). After the normal human fibroblasts were washed, they were replaced with PBS (100 μl/well) comprising 0.5 mg/ml of MTT (Thiazolyl Blue Tetrazolium Bromide (SIGMA, product No.: […] Subsequently, 100 μl of 0.01M HCl (SIGMA, product No.: 13-1690) and 10% SDS (Wako Pure Chemical Corporation, product No.: 191-07145) were added to each well and reacted at room temperature for 24 hours. After the reaction, formazan of MTT was resolved. After resolving formazan, absorbance was measured using a plate reader (Thermo Fisher Scientific, product No.: VARIOSKAN FLASH) (measurement wavelength 550 nm, reference wavelength 660 nm).

Normal human fibroblasts [5] = assay: Amount of mitochondria (Mito Tracker Mitochondrion-Selective Probes); format: cell-based; conditions: for amount of mitochondria relative to Control: Control = 100%, Example 1/2/3 = 0.002/0.01/0.05 wt % ingredient, Comparative Example 1 = 0.0023 wt % resveratrol
Excerpt: Example 1: a basal medium comprising 0.002 wt % of grape seed-derived anti-aging ingredients of the present invention. Example 2: a basal medium comprising 0.01 wt % of grape seed-derived anti-aging ingredients of the present invention. Example 3: a basal medium comprising 0.05 wt % of grape seed-derived anti-aging ingredients of the present invention. Comparative Example 1: a basal medium containing 0.0023 wt % of resveratrol. Control: a basal medium (comprising no grape seed-derived anti-aging ingredients of the present invention nor resveratrol). The amount of mitochondria was measured using Mito Tracker Mitochondrion-Selective Probes (Invitrogen, product No.: M7512) which can selectively label mitochondria in a cell. After removing culture supernatants of normal human fibroblasts cultured in Example 2, normal human fibroblasts were washed twice with PBS (Nissui Pharmaceutical Co., Ltd., product No.: 05913). To the washed cells were added a basal medium comprising a 1000-fold diluted Hoechist 33342 solution (DOJINDO LABORATORIES, product No.: 346-07951) and a 2000-fold diluted Mito Tracker Mitochondrion-Selective Probes (Invitrogen, product No.: M7512), and normal human fibroblasts were cultured at 37° C. for 30 minutes. After the culture, culture supernatants were removed and normal human fibroblasts were washed twice with PBS (Nissui Pharmaceutical Co., Ltd., product No.: 05913). After wash, PBS (Nissui Pharmaceutical Co., Ltd., product No.: 05913) was newly added to the normal human fibroblasts, and nuclei staining (living cells) and stained images of mitochondria were taken by a fluorescence microscope (Keyence Corporation, product No.: BZ-[…]). Subsequently, each fluorescence intensity was measured using a fluorescent plate reader (Thermo Fisher Scientific, product No.: VARIOSKAN FLASH) (Hoechis: excitation wavelength 356 nm, fluorescence wavelength 465 nm, Mito Tracker: excitation wavelength 579 nm, fluorescence wavelength 599 nm).

Normal human fibroblasts [6] = assay: Test for confirming anti-aging effect: amount of senescent cells by SA-β-gal (SPiDER-βGal) staining; format: cell-based; conditions: for amount of the senescent cells relative to Control: Control = 100%, Example 1/2/3 = 0.002/0.01/0.05 wt % ingredient, Comparative Example 1 = 0.0023 wt % resveratrol
Description: Subsequent to initiation, Normal human fibroblasts (KURABO INDUSTRIES LTD., product No.: KF-4109) were cultured in a basal medium (DMEM (Nacalai Tesque, Inc., product No.: 08456-65)), 10% FBS (BioWest, product No.: S1820, Lot No. 516536), and 1% antibiotic (penicillin-streptomycin mixed solution (Nacalai Tesque, Inc., product No.: 26253-84)) in a CO2 incubator (5% CO2, 37° C.) until a required number of cells were obtained. […] After the resolution, Example and Comparative Example resolved in a basal medium were centrifuged respectively (120,000 rpm (2,000 s^-1), 10 minutes) to remove insoluble materials. After the centrifugal separation, supernatant was collected, filtered and sterilized through a sterilizing filter to be used for each test. Anti-aging effect of Example and Comparative Example was tested by measuring an activity of β-galactosidase (senescence-associated β-galactosidase; SA-β-gal) generally used as a cell aging marker. Normal human fibroblasts prepared with a basal medium was seeded on a 96-well plate so as to be 1×10^4 cells/0.1 ml/well (black plate for fluorescence observation (Sumitomo Bakelite Co., Ltd. product No.: MS-8096F)) and cultured for 24 hours. After the culture, culture supernatants were respectively replaced with the below mediums with different conditions, and normal human fibroblasts were cultured again. The conditions for each medium are as follows. Each cell cultured with mediums with each condition are referred to as Examples 1-3, Comparative Example 1, and Control respectively. Example 1: a basal medium comprising 0.002 wt % of grape seed-derived anti-aging ingredients of the present invention. Example 2: a basal medium comprising 0.01 wt % of grape seed-derived anti-aging ingredients of the present invention. Example 3: a basal medium comprising 0.05 wt % of grape seed-derived anti-aging ingredients of the present invention. Comparative Example 1: a basal medium containing 0.0023 wt % of resveratrol. Control: a basal medium (comprising no grape seed-derived anti-aging ingredients of the present invention nor resveratrol). Normal human fibroblasts were cultured respectively with the conditions for up to 21 days. The mediums were exchanged every 2 to 3 days. After the culture, culture supernatants were removed and the cells were washed twice with PBS (Nissui Pharmaceutical Co., Ltd., product No.: 05913). […] After wash, the basal medium was added to normal human fibroblasts, and nuclei staining (living cells) and stained images of the senescent cells were taken by a fluorescence microscope (Keyence Corporation, product No.: BZ-[…]). The amount of the senescent cells were calculated based on the respective fluorescent images. […]

Oc1ccc(/C=C/c2cc(O)cc(O)c2)cc1 [Comparative Example 1, trans-3,4′,5-trihydroxy-stillbene]
effect on life span of mice, in words (male and female mouse): does not extend the life span
effect on the amount of the necrosis cells, in words (Normal human fibroblasts [1]; 7 to 21 days of culture): increasing the amount of the necrosis cells in all the periods
necrosis cells at higher concentration, in words (Normal human fibroblasts [1]; concentration of resveratrol more than 0.0023 wt %): necrosis cells increase too much
amount of the necrosis cells compared to the Control (Normal human fibroblasts [1]; cultured for 7 days): 125%
amount of the necrosis cells compared to the Control (Normal human fibroblasts [1]; cultured for 14 days (FIG. 5B), Example 1/2/3 = 0.002/0.01/0.05 wt % ingredient): 801%
amount of the necrosis cells compared to the Control (Normal human fibroblasts [1]; cultured for 21 days, Example 1/2/3 = 0.002/0.01/0.05 wt % ingredient): 608%
effect on the amount of the apoptosis cells, in words (Normal human fibroblasts [2]; 7 to 21 days of culture): increasing the amount of the apoptosis cells
amount of the apoptosis cells compared to the Control (Normal human fibroblasts [2]; cultured for 7 days): 2184%
amount of the apoptosis cells compared to the Control (Normal human fibroblasts [2]; cultured for 14 days): 1400%
amount of the apoptosis cells compared to the Control (Normal human fibroblasts [2]; cultured for 21 days): 4525%
extension of the life span of the budding yeast [3]: 70%
effect on the workload of a certain amount of mitochondria, in words (Normal human fibroblasts [4]; 7 to 21 days of culture): decreasing the workload of a certain amount of mitochondria
workload of a certain amount of mitochondria relative to Control (Normal human fibroblasts [4]; cultured for 7 days): 22%
workload of a certain amount of mitochondria relative to Control (Normal human fibroblasts [4]; cultured for 14 days): 20%
workload of a certain amount of mitochondria relative to Control (Normal human fibroblasts [4]; cultured for 21 days): 49%
effect on the amount of mitochondria, in words (Normal human fibroblasts [5]; 7 to 21 days of culture): increasing an amount of mitochondria
amount of mitochondria relative to Control (Normal human fibroblasts [5]; cultured for 7 days): 191%
amount of mitochondria relative to Control (Normal human fibroblasts [5]; cultured for 14 days): 228%
amount of senescent cells versus Control, in words (Normal human fibroblasts [6]; cells cultured for 7 days): more senescent cells among cells cultured for 7 days than Control
amount of the senescent cells relative to Control (Normal human fibroblasts [6]; cultured for 7 days): 519%
amount of the senescent cells relative to Control (Normal human fibroblasts [6]; cultured for 14 days): 102%
amount of the senescent cells relative to Control (Normal human fibroblasts [6]; cultured for 21 days): 64%
